Measurements as given in PubChem BioAssay AID1963975 (Molecular Pharmacology Branch, DTP, NCI, 2024).
pIC50: −log10 of the molar value.

Test system: 624824-186-R-J2-PDC multicell spheroids, viability
Experiment: Anticancer human tumor 624824-186-R-J2-PDC patient-derived colon adenocarcinoma cell line growth inhibition [PI3K]
Details: for pIC50: curve of first compound; for viability, T/C: stronger effect = lower value
Procedure, shortened: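 Tumor cells grown as multi-cell spheroids with HUVEC endothelial cells and MSC fibroblast-like stroma were treated with targeted agents combined with inavolisib, alpelisib, duvelisib or copanlisib. Doses fell in half-log steps from near clinical Cmax, else from 10 microM. Viability was measured.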

[1] = second compound 0.00316 µM, first compound 0.0316 µM
[2] = second compound 0.00316 µM, first compound 0.1 µM
[3] = second compound 0.00316 µM, first compound 0.316 µM
[4] = second compound 0.00316 µM, first compound 1 µM
[5] = second compound 0.00316 µM, first compound 3.16 µM
[6] = second compound 0.00316 µM, first compound 10 µM
[7] = second compound 0.01 µM, first compound 0.0316 µM
[8] = second compound 0.01 µM, first compound 0.1 µM
[9] = second compound 0.01 µM, first compound 0.316 µM
[10] = second compound 0.01 µM, first compound 1 µM
[11] = second compound 0.01 µM, first compound 3.16 µM
[12] = second compound 0.01 µM, first compound 10 µM
[13] = second compound 0.0316 µM, first compound 0.0316 µM
[14] = second compound 0.0316 µM, first compound 0.1 µM
[15] = second compound 0.0316 µM, first compound 0.316 µM
[16] = second compound 0.0316 µM, first compound 1 µM
[17] = second compound 0.0316 µM, first compound 3.16 µM
[18] = second compound 0.0316 µM, first compound 10 µM
[19] = second compound 0.1 µM, first compound 0.0316 µM
[20] = second compound 0.1 µM, first compound 0.1 µM
[21] = second compound 0.1 µM, first compound 0.316 µM
[22] = second compound 0.1 µM, first compound 1 µM
[23] = second compound 0.1 µM, first compound 3.16 µM
[24] = second compound 0.1 µM, first compound 10 µM
[25] = second compound 0.316 µM, first compound 0.0316 µM
[26] = second compound 0.316 µM, first compound 0.1 µM
[27] = second compound 0.316 µM, first compound 0.316 µM
[28] = second compound 0.316 µM, first compound 1 µM
[29] = second compound 0.316 µM, first compound 3.16 µM
[30] = second compound 0.316 µM, first compound 10 µM
[31] = second compound 1 µM, first compound 0.0316 µM
[32] = second compound 1 µM, first compound 0.1 µM
[33] = second compound 1 µM, first compound 0.316 µM
[34] = second compound 1 µM, first compound 1 µM
[35] = second compound 1 µM, first compound 3.16 µM
[36] = second compound 1 µM, first compound 10 µM
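Note: spheroids exposed to agents for 7 days before viability read.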
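Throughout, for viability, T/C: 100% = DMSO vehicle treated spheroids.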

C#Cc1c(F)ccc2cc(O)cc(-c3ncc4c(N5CC6CCC(C5)N6)nc(OCC56CCCN5CC(F)C6)nc4c3F)c12 (stereo unspecified) + CC(Nc1ccc2c(c1)OCCn1cc(N3C(=O)OCC3C(F)F)nc1-2)C(N)=O
pIC50 (second compound 0.00316 µM): < 5.00 | pIC50 (second compound 0.01 µM): < 5.00 | pIC50 (second compound 0.0316 µM): < 5.00 | pIC50 (second compound 0.1 µM): < 5.00 | pIC50 (second compound 0.316 µM): < 5.00 | pIC50 (second compound 1 µM): < 5.00 | viability, T/C [1]: 90% | viability, T/C [2]: 98.3% | viability, T/C [3]: 123% | viability, T/C [4]: 87.4% | viability, T/C [5]: 105% | viability, T/C [6]: 106% | viability, T/C [7]: 116% | viability, T/C [8]: 103% | viability, T/C [9]: 82.6% | viability, T/C [10]: 89% | viability, T/C [11]: 94.9% | viability, T/C [12]: 86.5% | viability, T/C [13]: 91.6% | viability, T/C [14]: 116% | viability, T/C [15]: 79.2% | viability, T/C [16]: 102% | viability, T/C [17]: 106% | viability, T/C [18]: 82.2% | viability, T/C [19]: 121% | viability, T/C [20]: 88.1% | viability, T/C [21]: 80.6% | viability, T/C [22]: 82.5% | viability, T/C [23]: 93.3% | viability, T/C [24]: 100% | viability, T/C [25]: 101% | viability, T/C [26]: 76.2% | viability, T/C [27]: 79% | viability, T/C [28]: 85.1% | viability, T/C [29]: 86.8% | viability, T/C [30]: 81.8% | viability, T/C [31]: 78.1% | viability, T/C [32]: 80.3% | viability, T/C [33]: 82% | viability, T/C [34]: 94.4% | viability, T/C [35]: 93.2% | viability, T/C [36]: 91.1%

CC1(C)CCC(Nc2ncc(C(F)(F)F)c(-c3c[nH]c4c(P(C)(C)=O)c(C#N)ccc34)n2)CN1 (stereo unspecified) + CC(Nc1ccc2c(c1)OCCn1cc(N3C(=O)OCC3C(F)F)nc1-2)C(N)=O
pIC50 (second compound 0.00316 µM): 5.41 | pIC50 (second compound 0.01 µM): 5.44 | pIC50 (second compound 0.0316 µM): 5.38 | pIC50 (second compound 0.1 µM): 5.50 | pIC50 (second compound 0.316 µM): 5.46 | pIC50 (second compound 1 µM): 5.49 | viability, T/C [1]: 73.8% | viability, T/C [2]: 84.7% | viability, T/C [3]: 86.4% | viability, T/C [4]: 98.7% | viability, T/C [5]: 59.7% | viability, T/C [6]: 7.81% | viability, T/C [7]: 71.8% | viability, T/C [8]: 70.3% | viability, T/C [9]: 85% | viability, T/C [10]: 99.8% | viability, T/C [11]: 55.6% | viability, T/C [12]: 7.27% | viability, T/C [13]: 66.1% | viability, T/C [14]: 72.4% | viability, T/C [15]: 93.3% | viability, T/C [16]: 108% | viability, T/C [17]: 63.9% | viability, T/C [18]: 5.65% | viability, T/C [19]: 74.4% | viability, T/C [20]: 85.3% | viability, T/C [21]: 87.1% | viability, T/C [22]: 105% | viability, T/C [23]: 50% | viability, T/C [24]: 5.2% | viability, T/C [25]: 68.2% | viability, T/C [26]: 81.9% | viability, T/C [27]: 90.2% | viability, T/C [28]: 93.7% | viability, T/C [29]: 53.9% | viability, T/C [30]: 4.99% | viability, T/C [31]: 78.5% | viability, T/C [32]: 83.1% | viability, T/C [33]: 91.1% | viability, T/C [34]: 72.9% | viability, T/C [35]: 51.5% | viability, T/C [36]: 5.93%

Cn1cnc2c(F)c(Nc3ccc(Br)cc3Cl)c(C(=O)NOCCO)cc21 + CC(Nc1ncnc2nc[nH]c12)c1cc2cccc(Cl)c2c(=O)n1-c1ccccc1
pIC50 (second compound 0.0316 µM): < 5.52 | pIC50 (second compound 0.1 µM): < 5.52 | pIC50 (second compound 0.316 µM): < 5.52 | pIC50 (second compound 1 µM): < 5.52 | pIC50 (second compound 3.16 µM): < 5.52 | pIC50 (second compound 10 µM): < 5.52 | viability, T/C (second compound 0.0316 µM, first compound 0.00949 µM): 73.3% | viability, T/C (second compound 0.0316 µM, first compound 0.03 µM): 89.5% | viability, T/C (second compound 0.0316 µM, first compound 0.0949 µM): 69.2% | viability, T/C (second compound 0.0316 µM, first compound 0.3 µM): 63.5% | viability, T/C (second compound 0.0316 µM, first compound 0.949 µM): 68% | viability, T/C (second compound 0.0316 µM, first compound 3 µM): 60.6% | viability, T/C (second compound 0.1 µM, first compound 0.00949 µM): 79.8% | viability, T/C (second compound 0.1 µM, first compound 0.03 µM): 62.7% | viability, T/C (second compound 0.1 µM, first compound 0.0949 µM): 70.8% | viability, T/C (second compound 0.1 µM, first compound 0.3 µM): 55.8% | viability, T/C (second compound 0.1 µM, first compound 0.949 µM): 64.2% | viability, T/C (second compound 0.1 µM, first compound 3 µM): 62.1% | viability, T/C (second compound 0.316 µM, first compound 0.00949 µM): 86.9% | viability, T/C (second compound 0.316 µM, first compound 0.03 µM): 64.5% | viability, T/C (second compound 0.316 µM, first compound 0.0949 µM): 58.6% | viability, T/C (second compound 0.316 µM, first compound 0.3 µM): 59.5% | viability, T/C (second compound 0.316 µM, first compound 0.949 µM): 60.5% | viability, T/C (second compound 0.316 µM, first compound 3 µM): 61.2% | viability, T/C (second compound 1 µM, first compound 0.00949 µM): 75.2% | viability, T/C (second compound 1 µM, first compound 0.03 µM): 75.3% | viability, T/C (second compound 1 µM, first compound 0.0949 µM): 65.1% | viability, T/C (second compound 1 µM, first compound 0.3 µM): 67% | viability, T/C (second compound 1 µM, first compound 0.949 µM): 58.5% | viability, T/C (second compound 1 µM, first compound 3 µM): 53.5% | viability, T/C (second compound 3.16 µM, first compound 0.00949 µM): 78.2% | viability, T/C (second compound 3.16 µM, first compound 0.03 µM): 74.7% | viability, T/C (second compound 3.16 µM, first compound 0.0949 µM): 60.6% | viability, T/C (second compound 3.16 µM, first compound 0.3 µM): 59.6% | viability, T/C (second compound 3.16 µM, first compound 0.949 µM): 56.2% | viability, T/C (second compound 3.16 µM, first compound 3 µM): 50.6% | viability, T/C (second compound 10 µM, first compound 0.00949 µM): 72.7% | viability, T/C (second compound 10 µM, first compound 0.03 µM): 71.8% | viability, T/C (second compound 10 µM, first compound 0.0949 µM): 67.4% | viability, T/C (second compound 10 µM, first compound 0.3 µM): 60.7% | viability, T/C (second compound 10 µM, first compound 0.949 µM): 57.5% | viability, T/C (second compound 10 µM, first compound 3 µM): 51.2%
